This passage reports EC50 results from patent publication US20250206757A1 (GASHERBRUM BIO, INC., priority 2022, published 2025).

The target of this test is GLP-1 Receptor (Homo sapiens, UniProt P43220). Briefly: GLP-1R agonist cAMP stimulation assay (HEK293/GLP1R/CRE-LUC cells, HTRF cAMP dynamic 2 kit). The format is cell-based. The note with it: HEK293/CRE-Luc cell line stably expressing the GLP-1 Receptor; 30 min incubation at 37° C. The procedure: Activation of GLP-1 receptor is known to stimulate cyclic AMP (cAMP) production in cells which indicates primary coupling to the Gas subunit of the G protein heterotrimeric complex.
Chain of GLP-1 Receptor (P43220 24-463): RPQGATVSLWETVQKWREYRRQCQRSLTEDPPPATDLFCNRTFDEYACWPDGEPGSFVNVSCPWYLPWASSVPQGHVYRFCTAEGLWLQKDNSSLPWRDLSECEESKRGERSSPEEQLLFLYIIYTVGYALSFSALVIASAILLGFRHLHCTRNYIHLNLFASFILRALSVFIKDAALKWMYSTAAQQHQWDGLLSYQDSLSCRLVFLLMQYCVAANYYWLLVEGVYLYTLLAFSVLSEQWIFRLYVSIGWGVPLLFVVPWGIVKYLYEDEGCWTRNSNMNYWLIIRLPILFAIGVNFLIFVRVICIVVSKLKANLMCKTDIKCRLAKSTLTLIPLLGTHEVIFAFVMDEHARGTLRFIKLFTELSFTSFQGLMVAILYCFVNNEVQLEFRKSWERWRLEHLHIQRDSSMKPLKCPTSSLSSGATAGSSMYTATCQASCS
To optimize functional activity directed toward Gas coupling, a HEK293/CRE-Luc cell line developed by HDB stably expressing the GLP-1 Receptor was used. 200× concentration of compound working solutions were prepared (Agilent Technologies Bravo) with 1/2 log serial dilution in 384-well Echo LDV plate (Labcyte, Cat #LP-0200). 50 nL/well 200× concentration of compound working solutions were moved to 384-well white low volume plate (Greiner, Cat #784075) using Labcyte ECHO550. 1×10^5 cells/mL HEK293/GLP1R/CRE-LUC (HD Biosciences) cell suspensions prepared with assay buffer [DPBS containing 0.5 mM IBMX (Sigma, Cat #15879) and 0.10% BSA (GENVIEW, Cat #FA016-100g)], 10 μL cell suspensions were added to each well of previous generated assay plate which already contains 50 nL compound at 200× concentration using ThermoFisher Multidrop Combi (1000 cells/well). Seal the plate and incubate at 37° C. with 5% CO2 for 30 min.
After incubation the cAMP assay signal was generated using cAMP dynamic 2 Kit (Cisbio). 5 μL cAMP-d2 working solution was added to each well, followed with 5 μL Anti-cAMP antibody-cryptate working solution added to each well using ThermoFisher Multidrop Combi. Incubate at room temperature for 1 hour protected from light. Read the fluorescence at 665 and 615 nm with Reader PerkinElmer EnVision.
(TR-FRET usually uses a lanthanide donor and a delayed reading to cut background.)
Consider `Fc1cc(Cl)cc(F)c1COc1nc2c(cc1C(F)(F)F)CCN(Cc1nc3cc(-c4nnc(C(F)(F)F)[nH]4)nnc3n1C[C@@H]1CCO1)C2` [Compound 39, 2-[(4-chloro-2,6-difluorophenyl)methoxy]-7-[(7-{[(2S)-oxetan-2-yl]methyl}-3-[5-(trifluoromethyl)-4H-1,2,4-triazol-3-yl]-7H-imidazo[4,5-c]pyridazin-6-yl)methyl]-3-(trifluoromethyl)-5,6,7,8-tetrahydro-1,7-naphthyridine], for which the 50% effective concentration (EC50) is less than 1 nM.

With `Cc1cc2c(nc1OCc1c(F)cc(Cl)cc1F)CN(Cc1nc3cc(-c4nnc(C#N)[nH]4)ncc3n1C[C@@H]1CCO1)CC2` [Compound 40, 5-[2-({2-[(4-chloro-2,6-difluorophenyl)methoxy]-3-methyl-5,6,7,8-tetrahydro-1,7-naphthyridin-7-yl}methyl)-3-{[(2S)-oxetan-2-yl]methyl}-3H-imidazo[4,5-c]pyridin-6-yl]-4H-1,2,4-triazole-3-carbonitrile], the EC50 is less than 1 nM.

Consider `Cc1cc2c(nc1OCc1c(F)cc(Cl)cc1F)CN(Cc1nc3cc(-c4nnc(C#N)[nH]4)cnc3n1C[C@@H]1CCO1)CC2` [Compound 41, 5-[2-({2-[(4-chloro-2,6-difluorophenyl)methoxy]-3-methyl-5,6,7,8-tetrahydro-1,7-naphthyridin-7-yl}methyl)-3-{1[(2S)-oxetan-2-yl]methyl}-3H-imidazo[4,5-b]pyridin-6-yl]-4H-1,2,4-triazole-3-carbonitrile], for which the concentration giving a half-maximal response (EC50) was less than 1 nM.

In turn, `N#Cc1nnc(-c2cc3nc(CN4CCc5cc(C(F)(F)F)c(OCc6ccc(Cl)cc6F)nc5C4)n(C[C@@H]4CCO4)c3nn2)[nH]1` [Compound 42, 5-[6-({2-[(4-chloro-2-fluorophenyl)methoxy]-3-(trifluoromethyl)-5,6,7,8-tetrahydro-1,7-naphthyridin-7-yl}methyl)-7-{1[(2S)-oxetan-2-yl]methyl}-7H-imidazo[4,5-c]pyridazin-3-yl]-4H-1,2,4-triazole-3-carbonitrile] yielded a concentration giving a half-maximal response (EC50) of less than 1 nM.

The molecule `NC(=O)c1nnc(-c2cc3nc(CN4CCc5cc(C(F)(F)F)c(OCc6ccc(Cl)cc6F)nc5C4)n(C[C@@H]4CCO4)c3cn2)[nH]1` [Compound 43, 5-[2-({2-[(4-chloro-2-fluorophenyl)methoxy]-3-(trifluoromethyl)-5,6,7,8-tetrahydro-1,7-naphthyridin-7-yl}methyl)-3-{[(2S)-oxetan-2-yl]methyl}-3H-imidazo[4,5-c]pyridin-6-yl]-4H-1,2,4-triazole-3-carboxamide] gave a 50% effective concentration (EC50) of less than 1 nM.

Take `NC(=O)c1nnc(-c2cc3nc(CN4CCc5cc(C(F)(F)F)c(OCc6c(F)cc(Cl)cc6F)nc5C4)n(C[C@@H]4CCO4)c3cn2)[nH]1` [Compound 44, 5-[2-({2-[(4-chloro-2,6-difluorophenyl)methoxy]-3-(trifluoromethyl)-5,6,7,8-tetrahydro-1,7-naphthyridin-7-yl}methyl)-3-{[(2S)-oxetan-2-yl]methyl}-3H-imidazo[4,5-c]pyridin-6-yl]-4H-1,2,4-triazole-3-carboxamide]: the concentration for a half-maximal effect (EC50) was less than 1 nM.

As for `Cc1ccc(COc2nc3c(cc2C(F)(F)F)CCN(Cc2nc4c(F)c(-c5noc(=O)[nH]5)ccc4n2C[C@@H]2CCO2)C3)c(Cl)c1` [Compound 45], the EC50 was less than 1 nM.

`O=c1[nH]c(-c2ccc3c(nc(CN4CCc5cc(C(F)(F)F)c(OCc6ccc(Cl)cc6)nc5C4)n3C[C@@H]3CCO3)c2F)no1` [Compound 46, 3-[2-({2-[(4-chlorophenyl)methoxy]-3-(trifluoromethyl)-5,6,7,8-tetrahydro-1,7-naphthyridin-7-yl}methyl)-4-fluoro-1-{[(2S)-oxetan-2-yl]methyl}-1H-1,3-benzodiazol-5-yl]-4,5-dihydro-1,2,4-oxadiazol-5-one] returned a 50% effective concentration (EC50) of less than 1 nM.

Take `O=c1[nH]c(-c2ccc3c(nc(CN4CCc5cc(C(F)(F)F)c(OCc6ccc(Cl)cc6F)nc5C4)n3C[C@@H]3CCO3)c2F)no1` [Compound 47, 3-[2-({2-[(4-chloro-2-fluorophenyl)methoxy]-3-(trifluoromethyl)-5,6,7,8-tetrahydro-1,7-naphthyridin-7-yl}methyl)-4-fluoro-1-{[(2S)-oxetan-2-yl]methyl}-1H-1,3-benzodiazol-5-yl]-4,5-dihydro-1,2,4-oxadiazol-5-one]: the concentration giving a half-maximal response (EC50) was less than 1 nM.

`O=c1[nH]c(-c2ccc3c(nc(CN4CCc5cc(C(F)(F)F)c(OCc6c(F)cc(Cl)cc6F)nc5C4)n3C[C@@H]3CCO3)c2F)no1` [Compound 48, 3-[2-({2-[(4-chloro-2,6-difluorophenyl)methoxy]-3-(trifluoromethyl)-5,6,7,8-tetrahydro-1,7-naphthyridin-7-yl}methyl)-4-fluoro-1-{[(2S)-oxetan-2-yl]methyl}-1H-1,3-benzodiazol-5-yl]-4,5-dihydro-1,2,4-oxadiazol-5-one] came in with an EC50 of 1 to 300 nM.

Molecule `O=c1[nH]c(-c2ccc3c(n2)nc(CN2CCc4cc(C(F)(F)F)c(OCc5ccc(Cl)cc5F)nc4C2)n3C[C@@H]2CCO2)no1` [Compound 49, 3-[2-({2-[(4-chloro-2-fluorophenyl)methoxy]-3-(trifluoromethyl)-5,6,7,8-tetrahydro-1,7-naphthyridin-7-yl}methyl)-1-{[(2S)-oxetan-2-yl]methyl}-11H-imidazo[4,5-b]pyridin-5-yl]-4,5-dihydro-1,2,4-oxadiazol-5-one] yielded an EC50 of less than 1 nM.

For `Cc1cc2c(nc1OCc1c(F)cc(Cl)cc1F)CN(Cc1nc3nc(-c4noc(=O)[nH]4)ccc3n1C[C@@H]1CCO1)CC2` [Compound 50, 3-[2-({2-[(4-chloro-2,6-difluorophenyl)methoxy]-3-methyl-5,6,7,8-tetrahydro-1,7-naphthyridin-7-yl}methyl)-1-{1[(2S)-oxetan-2-yl]methyl}-1H-imidazo[4,5-b]pyridin-5-yl]-4,5-dihydro-1,2,4-oxadiazol-5-one], the EC50 is less than 1 nM.

`Cc1cc2c(nc1OCc1c(F)cc(Cl)cc1F)CN(Cc1nc3cc(-c4nnc(C(F)(F)F)[nH]4)cnc3n1C[C@@H]1CCO1)CC2` [Compound 51, 2-[(4-chloro-2,6-difluorophenyl)methoxy]-3-methyl-7-[(3-{1[(2S)-oxetan-2-yl]methyl}-6-[5-(trifluoromethyl)-4H-1,2,4-triazol-3-yl]-3H-imidazo[4,5-b]pyridin-2-yl)methyl]-5,6,7,8-tetrahydro-1,7-naphthyridine] had an EC50 of less than 1 nM.

Turning to `Cc1cc2c(nc1OCc1ccc(Cl)cc1F)CN(Cc1nc3cc(-c4nnc(C(F)F)[nH]4)cnc3n1C[C@@H]1CCO1)CC2` [Compound 52, 2-[(4-chloro-2-fluorophenyl)methoxy]-7-({6-[5-(difluoromethyl)-4H-1,2,4-triazol-3-yl]-3-{[(2S)-oxetan-2-yl]methyl}-3H-imidazo[4,5-b]pyridin-2-yl}methyl)-3-methyl-5,6,7,8-tetrahydro-1,7-naphthyridine], the EC50 was less than 1 nM.

With `Cc1cc2c(nc1OCc1c(F)cc(Cl)cc1F)CN(Cc1nc3cc(-c4nnc(C(F)F)[nH]4)cnc3n1C[C@@H]1CCO1)CC2` [Compound 53, 2-[(4-chloro-2,6-difluorophenyl)methoxy]-7-({6-[5-(difluoromethyl)-4H-1,2,4-triazol-3-yl]-3-{1[(2S)-oxetan-2-yl]methyl}-3H-imidazo[4,5-b]pyridin-2-yl}methyl)-3-methyl-5,6,7,8-tetrahydro-1,7-naphthyridine], the EC50 was less than 1 nM.

As for `FC(F)(F)c1nnc(-c2cc3nc(CN4CCc5cc(C(F)(F)F)c(OCc6ccc(Cl)cc6)nc5C4)n(C[C@@H]4CCO4)c3cn2)[nH]1` [Compound 54, 2-[(4-chlorophenyl)methoxy]-7-[(3-{1[(2S)-oxetan-2-yl]methyl}-6-[5-(trifluoromethyl)-4H-1,2,4-triazol-3-yl]-3H-imidazo[4,5-c]pyridin-2-yl)methyl]-3-(trifluoromethyl)-5,6,7,8-tetrahydro-1,7-naphthyridine], the EC50 is less than 1 nM.

Molecule `Cc1cc2c(nc1OCc1c(F)cc(Cl)cc1F)CN(Cc1nc3cc(-c4nnc(C(F)(F)F)[nH]4)ncc3n1C[C@@H]1CCO1)CC2` [Compound 55, 2-[(4-chloro-2,6-difluorophenyl)methoxy]-3-methyl-7-[(3-{1[(2S)-oxetan-2-yl]methyl}-6-[5-(trifluoromethyl)-4H-1,2,4-triazol-3-yl]-3H-imidazo[4,5-c]pyridin-2-yl)methyl]-5,6,7,8-tetrahydro-1,7-naphthyridine] had an EC50 of less than 1 nM.

For `Cc1cc2c(nc1OCc1c(F)cc(Cl)cc1F)CN(Cc1nc3cc(-c4nnc(C(F)F)[nH]4)ncc3n1C[C@@H]1CCO1)CC2` [Compound 56, 2-[(4-chloro-2,6-difluorophenyl)methoxy]-7-({6-[5-(difluoromethyl)-4H-1,2,4-triazol-3-yl]-3-{[(2S)-oxetan-2-yl]methyl}-3H-imidazo[4,5-c]pyridin-2-yl}methyl)-3-methyl-5,6,7,8-tetrahydro-1,7-naphthyridine], the concentration giving a half-maximal response (EC50) is less than 1 nM.

`O=c1[nH]c(-c2cc3c(nc(CN4CCc5cc(C(F)(F)F)c(OCc6ccc(Cl)cc6F)nc5C4)n3C[C@@H]3CCO3)s2)no1` [Compound 58, 3-[2-({2-[(4-chloro-2-fluorophenyl)methoxy]-3-(trifluoromethyl)-5,6,7,8-tetrahydro-1,7-naphthyridin-7-yl}methyl)-1-{[(2S)-oxetan-2-yl]methyl}-1H-thieno[2,3-d]imidazol-5-yl]-4,5-dihydro-1,2,4-oxadiazol-5-one] displayed an EC50 of less than 1 nM.

For orientation: EC50 means the concentration needed to bring the measured effect to its halfway point. A low value points to a more potent agent.
